Assay results: patent publication US9963506B2, “Human-mouse chimeric anti-CD147 antibody with non-fucosylated glycosylation” (Fourth Military Medical University, priority 2015, dated 2018)

System: A549 cells
Experiment: Subcutaneous xenograft model, tumor growth inhibition
Format: in vivo, SCID mice
Details: tail vein
Method: Mice injected with A549 cells subcutaneously in the right dorsal flank were treated by intravenous saline; 2 mg/kg Cisplatin and 100 mg/kg Gemcitabine; Metuzumab infusion at 2 mg/kg, 10 mg/kg and 30 mg/kg; combination of 10 mg/kg Metuzumab with 2 mg/kg Cisplatin and 100 mg/kg Gemcitabine; wherein the antibodies were injected twice weekly for 3 week consecutively, while the chemotherapeutic agents were injected once a week for 3 weeks consecutively. The tumors were measured twice a week.
Animals were housed in specific pathogen-free (SPF) condition. For the localized subcutaneous xenograft mouse model, 1×10^6 NCI-H520 or A549 cells, suspended in Hank's balanced salt solution were implanted in the right dorsal flank of male SCID mice (6-8 week old). When tumors reached a mean volume of 100 mm^3, mice were randomized into treatment cohorts (n=10 mice per group). Mice were grouped for different treatments, including Metuzumab treatment groups treated with 2 mg/kg, 10 mg/kg and 30 mg/kg Metuzumab; chemistry treatment group treated with 2 mg/kg Cisplatin and 100 mg/kg Gemcitabine; combination treatment group treated with 10 mg/kg Metuzumab with 2 mg/kg Cisplatin and 100 mg/kg Gemcitabine, or saline (control group) via tail vein, respectively. Antibody injections were administered twice weekly, for 3 weeks consecutively; chemotherapeutic agents were administered once a week, for 3 weeks consecutively. Tumor size was measured twice each week for the duration of the study using calipers. Tumor volumes were determined using the following formula: […]. Antitumor activity was assessed by calculating inhibition ratio of tumor volumes (IRTV) based on medians by using following formula: [1−average (Ttreatment (day x)−Ttreatment (day 0))/average (Tcontrol (day x)−Tcontrol (day 0))]×100%.

“Metuzumab: human-mouse chimeric anti-CD147 IgG1, heavy chain SEQ ID NO: 4, light chain SEQ ID NO: 3, Mannose-5 glycoform lacking fucose and xylose” was tested, and the “tumor volume inhibition rate” value (2 mg/kg twice weekly for 3 weeks) was 14.78%, the “tumor volume inhibition rate” value (10 mg/kg twice weekly for 3 weeks) was 26.52% and the “tumor volume inhibition rate” value (30 mg/kg twice weekly for 3 weeks) was 50.64%.
